Source: patent US7126027B2, “N-[(1-dimethylaminocycloalkyl)methyl]benzamide derivatives” (Akzo Nobel N.V., priority 2002, dated 2006)

Tested on: rats
Assay: Chung model of neuropathy (L5 spinal nerve ligation, von Frey withdrawal threshold)
Type: in vivo, rat
Conditions: twenty minutes after subcutaneous injection; Example 2 20 mg/kg, morphine sulphate 2 mg/kg, gabapentin 50 mg/kg; post-surgery pre-drug 0.8±0.1 g

`NCC1(CC(=O)O)CCCCC1` [gabapentin] and `COc1cc(C(=O)NCC2(N(C)C)CCCC2)cc(OC)c1OCc1ccccc1` [Example 2, 4-Benzyloxy-3,5-dimethoxy-N-[1-(dimethylaminocyclopentyl)methyl]benzamide] are within error of each other in Withdrawal threshold: 3.2 ± 1.5 g for the first, 4.7 ± 1.15 g for the second.

For `CN1CC[C@]23c4c5ccc(O)c4O[C@H]2[C@@H](O)C=C[C@H]3[C@H]1C5.O=S(=O)(O)O` [morphine, morphine sulphate], the Withdrawal threshold was 4.2 ± 1.5 g.

Biological target: T1, hGlyT-2 (Homo sapiens, UniProt Q9Y345)
T1 construct: expressed in transfected cells
T1 sequence (Q9Y345 1-797): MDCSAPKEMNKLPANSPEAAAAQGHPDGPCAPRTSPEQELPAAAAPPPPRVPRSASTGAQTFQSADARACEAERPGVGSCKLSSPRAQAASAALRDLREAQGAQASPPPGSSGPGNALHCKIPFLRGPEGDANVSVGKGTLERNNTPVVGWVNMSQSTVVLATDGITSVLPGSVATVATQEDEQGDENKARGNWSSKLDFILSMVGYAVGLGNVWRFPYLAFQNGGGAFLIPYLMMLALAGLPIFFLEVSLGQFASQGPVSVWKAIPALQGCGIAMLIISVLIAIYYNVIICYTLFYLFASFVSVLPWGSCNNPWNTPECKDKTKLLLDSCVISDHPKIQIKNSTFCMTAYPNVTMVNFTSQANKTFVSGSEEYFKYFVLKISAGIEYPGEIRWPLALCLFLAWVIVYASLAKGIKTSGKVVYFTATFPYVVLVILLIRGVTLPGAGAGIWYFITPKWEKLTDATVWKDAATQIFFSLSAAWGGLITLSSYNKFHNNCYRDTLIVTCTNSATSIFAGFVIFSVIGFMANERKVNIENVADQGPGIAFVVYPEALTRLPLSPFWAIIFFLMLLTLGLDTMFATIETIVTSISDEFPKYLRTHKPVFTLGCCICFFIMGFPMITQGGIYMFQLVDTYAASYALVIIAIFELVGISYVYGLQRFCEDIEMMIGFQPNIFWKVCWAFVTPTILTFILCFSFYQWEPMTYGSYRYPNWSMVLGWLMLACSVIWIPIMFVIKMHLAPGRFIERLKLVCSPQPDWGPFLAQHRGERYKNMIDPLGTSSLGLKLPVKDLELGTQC
Assay: Glycine uptake assay, CHO cells stably transfected with hGlyT-2
Type: cell-based
Conditions: [3H]-glycine 30 μM, 37° C., 10 minutes, read-out: Inhibition of glycine transport by hGlyT-2 IC50
Description: Glycine uptake assays were performed as described by Morrow et al. (FEBS Lett. 1998, 439, 334–340) using CHO cells stably transfected with either hGlyT-1b or hGlyT-2. Cells were grown in 96 well microtitre plates (30,000 cells/well) for 24–48 hours before removal of culture medium and addition of Hanks Balanced Salt Solution (HBSS) containing [^3H]-glycine (30 μM) and varying concentrations of test compounds. Plates were incubated at 37° C. for 10 minutes and uptake terminated by washing three times with ice-cold HBSS. After removal of excess liquid, scintillation cocktail was added to each well, prior to counting in a plate counter. Data were analysed using the GraphPad Prism™ analysis package and the sigmoid dose-response curve fitting option to produce IC50 (the concentration of test compound producing 50% inhibition of uptake) values.

Compared with `Cc1cc(C(=O)NCC2(N(C)C)CCCC2)cc(C)c1OCc1ccccc1` [Example 9, 4-Benzyloxy-3,5-dimethyl-N-[(1-dimethylaminocyclopentyl)methyl]benzamide], `Cc1cc(C(=O)NCC2(N(C)C)CCCCCC2)cc(C)c1OCc1ccccc1` [Example 16, 4-Benzyloxy-3,5-dimethyl-N-[(1-dimethylaminocycloheptyl)methyl]benzamide] is 3.4-fold higher in IC50: 27 nM for the first, 92 nM for the second. The first is the more potent here.

`COc1cc(C(=O)NCC2(N(C)C)CCCC2)cc(OC)c1OCc1ccc(C)cc1` [Example 10, 3,5-Dimethoxy-4-(4-methylbenzyloxy)-N-[(1-dimethylaminocyclopentyl)methyl]benzamide] and `COc1cc(C(=O)NCC2(N(C)C)CCCC2)cc(OC)c1OCc1ccc(Cl)cc1` [Example 12, 4-(4-Chloro)benzyloxy-3,5-dimethoxy-N-[1-(dimethylaminocyclopentyl)methyl]benzamide] are within 1.5-fold of each other in IC50: 30 nM for the first, 44 nM for the second.

Compared with `COc1cc(C(=O)NCC2(N(C)C)CCCC2)cc(OC)c1OCc1cccc2ccccc12` [Example 19, 3,5-Dimethoxy-4-(1-naphthyl)methoxy-N-[(1-dimethylaminocyclopentyl)methyl]benzamide], `COc1cc(C(=O)NCC2(N(C)C)CCCCC2)cc(OC)c1OCc1ccccc1` [Example 5, 4-Benzyloxy-3,5-dimethoxy-N-[(1-dimethylaminocyclohexyl)methyl]benzamide] is 2.6-fold lower in IC50: 215 nM for the first, 84 nM for the second.

Compared with `Cc1cc(C(=O)NCC2(N(C)C)CCCC2)cc(C)c1OCc1ccsc1` [Example 20, 3,5-Dimethyl-4-(3-thienyl)methoxy-N-[(1-dimethylaminocyclopentyl)methyl]benzamide], `Cc1cc(C(=O)NCC2(N(C)C)CCC2)cc(C)c1OCc1ccccc1` [Example 8, 4-Benzyloxy-3,5-dimethyl-N-[1-(dimethylaminocyclobutyl)methyl]benzamide] is 2-fold lower in IC50: 32 nM for the first, 16 nM for the second. The second is the more potent here.

`CCCCOc1c(OC)cc(C(=O)NCC2(N(C)C)CCCC2)cc1OC` [Example 7, 4-n-Butyloxy-3,5-dimethoxy-N-[(1-dimethylaminocyclopentyl)methyl]benzamide] and `COc1cc(C(=O)NCC2(N(C)C)CCCC2)cc(OC)c1OCC(C)C` [Example 15, 3,5-Dimethoxy-4-(2-methylpropoxy)-N-[(1-dimethylaminocyclopentyl)methyl]benzamide] are within 1.5-fold of each other in IC50: 77 nM for the first, 79 nM for the second.

Compared with `COc1cc(C(=O)NCC2(N(C)C)CCCC2)cc(OC)c1OCc1ccc(C(F)(F)F)cc1` [Example 14, 3,5-Dimethoxy-4-(4-trifluoromethylbenzyloxy)-N-[(1-dimethylaminocyclopentyl)methyl]benzamide], `COc1cc(C(=O)NCC2(N(C)C)CCCC2)cc(OC)c1OCCc1ccccc1` [Example 18, 3,5-Dimethoxy-4-(2-phenylethoxy)-N-[(1-dimethylaminocyclopentyl)methyl]benzamide] is 2.1-fold higher in IC50: 76 nM for the first, 156 nM for the second.

Going from `COc1cc(C(=O)NCC2(N(C)C)CCCC2)cc(OC)c1OC1CCCC1` [Example 21, 4-Cyclopentyloxy-3,5-dimethoxy-N-[(1-dimethylaminocyclopentyl)methyl]benzamide] to `COc1cc(C(=O)NCC2(N(C)C)CCCCC2)cc(OC)c1OCC1CCCCC1` [Example 13, 4-(Cyclohexylmethoxy)-3,5-dimethoxy-N-[(1-dimethylaminocyclohexyl)methyl]benzamide], the IC50 falls from 329 nM to 71 nM (4.6-fold). The second is the more potent here.

`COc1cc(C(=O)NCC2(N(C)C)CCCC2)cc(OC)c1OC(C)c1ccccc1` (stereo not drawn) [Example 11, 3,5-Dimethoxy-4-(1-phenyl)ethoxy-N-[1-(dimethylaminocyclopentyl)methyl]benzamide] was tested, and the IC50 was 35 nM.
